Legend:
[1] = system: AKT; assay: AKT phosphorylation in podocytes, western blot; type: cell-based; details: 30 minutes, screening (FIG. 2)
Method: (§1) FIG. 2A-C show representative data illustrating screening of TYRO3 agonists by activation of TYRO3, AKT, and NK-κB target gene expression. Referring to FIG. 2A and FIG. 2B, podocytes were treated with control vehicle (C) or different TYRO3 agonists (compounds 1-10) for 30 minutes. Western blot analysis was performed for phospho- or total Tyro3 (FIG. 2A) and AKT (FIG. 2B). Referring to FIG. 2C, podocytes were treated with vehicle control (C), TNF-α (10 ng) alone (T), or together with different TYRO3 agonists (compounds 1-10) for 2 hours, and then q-PCR analysis was performed for NF-kB target gene expression (IL-6). N=3, *p<0.01 as compared to TNF-α alone.
(§2) FIG. 3A and FIG. 3B show representative data illustrating the time course and dose effects of C-10 on the phosphorylation of TYRO3, AKT, and NK-κB target gene expression. Referring to FIG. 3A, podocytes were treated with C-10 for 30 minutes at different doses (left) or at 100 nM for different time period (right). […]
(§3) Next, their biological activity was screened by testing their effects on TYRO3, and AKT phosphorylation in podocytes. […] In addition, TYRO3 and Axl were overexpressed in podocytes (FIG. 4B), and the effects of C-10 in these cells was determined.

[2] = target: T1, TYRO3 (Homo sapiens, UniProt Q06418); assay: TYRO3 phosphorylation in podocytes, western blot; type: cell-based; details: for TYRO3 phosphorylation: podocytes, 30 minutes
T1 construct: testing their effects on TYRO3, and AKT phosphorylation in podocytes; endogenous in cells
T1 sequence (Q06418 41-890): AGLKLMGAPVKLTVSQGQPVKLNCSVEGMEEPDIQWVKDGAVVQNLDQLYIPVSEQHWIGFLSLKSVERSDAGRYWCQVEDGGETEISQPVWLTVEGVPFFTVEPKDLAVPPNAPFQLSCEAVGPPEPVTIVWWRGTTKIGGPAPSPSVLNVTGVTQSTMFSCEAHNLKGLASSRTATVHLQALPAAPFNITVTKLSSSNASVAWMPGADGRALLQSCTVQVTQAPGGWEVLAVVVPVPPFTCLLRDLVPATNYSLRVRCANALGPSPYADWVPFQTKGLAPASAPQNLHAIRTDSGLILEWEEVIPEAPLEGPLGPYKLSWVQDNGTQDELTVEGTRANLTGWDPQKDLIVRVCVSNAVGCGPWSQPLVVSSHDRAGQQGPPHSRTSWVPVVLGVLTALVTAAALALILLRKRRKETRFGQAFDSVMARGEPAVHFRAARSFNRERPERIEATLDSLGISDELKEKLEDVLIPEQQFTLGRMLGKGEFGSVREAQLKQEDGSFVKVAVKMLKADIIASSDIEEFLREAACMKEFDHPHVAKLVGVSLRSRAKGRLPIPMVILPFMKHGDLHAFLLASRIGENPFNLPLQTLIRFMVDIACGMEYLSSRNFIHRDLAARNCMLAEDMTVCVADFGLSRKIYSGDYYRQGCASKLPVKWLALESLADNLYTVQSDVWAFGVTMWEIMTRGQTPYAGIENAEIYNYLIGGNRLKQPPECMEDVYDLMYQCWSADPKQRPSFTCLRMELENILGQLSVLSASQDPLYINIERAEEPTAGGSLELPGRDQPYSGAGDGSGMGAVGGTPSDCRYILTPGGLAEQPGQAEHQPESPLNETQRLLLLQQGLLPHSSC
Method: as §1
FIG. 3A and FIG. 3B show representative data illustrating the time course and dose effects of C-10 on the phosphorylation of TYRO3, AKT, and NK-κB target gene expression. Referring to FIG. 3A, podocytes were treated with C-10 for 30 minutes at different doses (left) or at 100 nM for different time period (right). Referring to FIG. 3B, podocytes were treated with vehicle control TNF-α (10 ng) alone or together with different concentrations of C-10 for 2 hours, and then q-PCR analysis was performed for NF-kB target gene expression (IL-6 and CCL2). N=3, *p<0.01 and **p<0.001 as compared to TNF-α alone.
(§4) Referring to FIG. 4B, HEK293T cells were used to confirm the overexpression of Tyro3 and Axl (C: control; OV:overexpression). Referring to FIG. 4C, cells from above transfection were stimulated with C-10 at 100 nM for 30 minutes. Western blot analysis was performed for phospho- and total AKT and GAPDH was used as a control of protein loading. The representative blots of three independent experiments are shown.
(§5) Next, their biological activity was screened by testing their effects on TYRO3, and AKT phosphorylation in podocytes. […] To test the specificity, podocytes were treated with different doses of C-10 for 30 minutes, and then western blot analysis was performed with anti-phospho-Tyro3 antibody, which also recognizes phosphorylation of Mer and Axl. Since three TAM receptors have different molecular weights, they can be distinguished in the SDS gel. […] In addition, TYRO3 and Axl were overexpressed in […] (FIG. 4B), and the effects of C-10 in these cells was determined.

[3] = system: NF-κB target gene expression (IL-6); assay: NF-κB target gene expression in TNF-α treated podocytes, q-PCR; type: cell-based; details: TNF-α (10 ng), 2 hours, IL-6 q-PCR
Method: as §1, §2, §3

[4] = target: T2, Mer (Homo sapiens, UniProt Q12866); assay: Mer phosphorylation in podocytes, western blot with anti-phospho-TAM receptor antibody; type: cell-based; details: different doses, 30 minutes (FIG. 4A)
T2 construct: endogenous in cells; host or cells: human podocytes
T2 sequence (Q12866 21-999): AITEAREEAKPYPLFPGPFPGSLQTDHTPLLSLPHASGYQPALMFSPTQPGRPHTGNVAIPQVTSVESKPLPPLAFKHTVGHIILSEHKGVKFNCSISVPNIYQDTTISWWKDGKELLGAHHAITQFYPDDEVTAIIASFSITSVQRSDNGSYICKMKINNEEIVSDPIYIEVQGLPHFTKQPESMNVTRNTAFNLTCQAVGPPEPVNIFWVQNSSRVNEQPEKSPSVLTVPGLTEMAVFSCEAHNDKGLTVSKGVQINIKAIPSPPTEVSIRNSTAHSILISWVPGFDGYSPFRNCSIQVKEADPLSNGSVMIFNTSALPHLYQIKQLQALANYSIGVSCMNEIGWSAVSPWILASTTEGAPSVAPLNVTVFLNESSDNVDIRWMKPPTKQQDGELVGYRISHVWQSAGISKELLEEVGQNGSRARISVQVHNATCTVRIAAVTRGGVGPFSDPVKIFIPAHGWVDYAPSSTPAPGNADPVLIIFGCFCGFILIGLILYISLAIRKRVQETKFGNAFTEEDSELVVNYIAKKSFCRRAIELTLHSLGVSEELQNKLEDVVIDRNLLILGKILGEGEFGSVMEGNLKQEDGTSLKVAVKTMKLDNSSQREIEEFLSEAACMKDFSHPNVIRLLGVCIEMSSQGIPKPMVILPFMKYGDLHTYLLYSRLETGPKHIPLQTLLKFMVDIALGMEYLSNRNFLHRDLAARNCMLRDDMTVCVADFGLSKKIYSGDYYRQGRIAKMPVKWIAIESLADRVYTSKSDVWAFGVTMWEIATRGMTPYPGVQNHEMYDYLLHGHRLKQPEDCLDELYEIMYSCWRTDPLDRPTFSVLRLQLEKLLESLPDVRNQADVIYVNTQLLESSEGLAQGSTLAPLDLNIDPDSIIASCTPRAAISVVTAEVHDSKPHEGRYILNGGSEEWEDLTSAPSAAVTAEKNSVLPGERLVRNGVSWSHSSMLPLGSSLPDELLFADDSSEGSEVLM
Method: as §4, §5

[5] = target: T3, Axl (Homo sapiens, UniProt P30530); assay: Axl phosphorylation in podocytes, western blot with anti-phospho-TAM receptor antibody; type: cell-based; details: different doses, 30 minutes (FIG. 4A)
T3 construct: endogenous in cells; host or cells: human podocytes
T3 sequence (P30530 26-894): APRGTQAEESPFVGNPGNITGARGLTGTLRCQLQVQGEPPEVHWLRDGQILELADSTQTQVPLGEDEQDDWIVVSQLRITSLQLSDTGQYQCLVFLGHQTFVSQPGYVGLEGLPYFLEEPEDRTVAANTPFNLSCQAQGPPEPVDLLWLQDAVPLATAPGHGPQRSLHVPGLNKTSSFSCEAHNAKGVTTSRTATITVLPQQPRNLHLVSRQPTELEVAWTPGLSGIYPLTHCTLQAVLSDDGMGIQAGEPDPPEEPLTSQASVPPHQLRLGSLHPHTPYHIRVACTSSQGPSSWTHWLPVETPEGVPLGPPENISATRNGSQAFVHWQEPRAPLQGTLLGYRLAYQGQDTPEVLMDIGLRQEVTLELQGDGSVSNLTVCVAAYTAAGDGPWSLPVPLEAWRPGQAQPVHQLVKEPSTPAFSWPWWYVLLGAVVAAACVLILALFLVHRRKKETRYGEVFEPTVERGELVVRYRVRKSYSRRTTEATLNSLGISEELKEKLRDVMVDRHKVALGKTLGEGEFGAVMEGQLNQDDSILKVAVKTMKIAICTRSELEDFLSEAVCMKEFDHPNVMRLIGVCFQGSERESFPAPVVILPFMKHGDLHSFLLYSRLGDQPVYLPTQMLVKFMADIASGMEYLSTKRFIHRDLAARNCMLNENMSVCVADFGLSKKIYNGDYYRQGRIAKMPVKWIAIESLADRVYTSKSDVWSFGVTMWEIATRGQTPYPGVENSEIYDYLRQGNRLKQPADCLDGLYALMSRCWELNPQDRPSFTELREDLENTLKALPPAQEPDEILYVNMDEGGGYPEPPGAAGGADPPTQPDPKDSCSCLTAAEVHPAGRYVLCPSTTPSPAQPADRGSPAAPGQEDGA
Method: as §4, §5

[6] = system: mice with Adriamycin-induced nephropathy (ADRN); assay: Adriamycin-induced nephropathy (ADRN) in mice; type: in vivo
Method: FIG. 5A-C show representative data illustrating that C-10 treatment attenuates adriamycin-induced nephropathy (ADRN) in mice. 10-week old male Balb/c mice were injected with adriamycin (8 mg/kg) and treated with C-10 at 20 mg/kg from day 3 post-injection. All mice were sacrificed at day 28 post-injection.
The effect of C-10 was determined in vivo in mice with Adriamycin-induced nephropathy (ADRN). ADRN was induced in the Balb/c mice by injection of adriamycin at a dose of 8 mg/kg at the age of 10 weeks. The mice were fed with either C-10 at a dose of 20 mg/kg body weight or vehicle by daily gavage started on day 3 after they received an injection of Adriamycin, and ending in 4 weeks when the mice were sacrificed.

[7] = system: diabetic mice (db/db); assay: Albuminuria and glomerular injury in diabetic db/db mice; type: in vivo; details: 2.5 mg/kg from age 10 weeks, 8 weeks
Method: FIG. 6A-C show representative data illustrating that treatment with C-10 improves albuminuria and glomerular injury in diabetic mice. Db/db mice were treated with C-10 at 2.5 mg/kg at age of 10 week, the mice were sacrificed after 8 weeks of treatment.
The effect of C-10 on albuminuria and glomerular injury in diabetic mice was also evaluated. 10 week old db/db mice were treated with C-10 at 2.5 mg/kg. Mice were sacrificed at week 8. As shown in FIGS. 6A-C, administration of C-10 improved both albuminuria and glomerular injury relative to control.

[8] = system: TYRO3 overexpressing cells; assay: AKT phosphorylation in TYRO3 overexpressing cells; type: cell-based; details: 100 nM, 30 minutes (FIG. 4C)
Method: as §4, §5

[9] = ADRN Balb/c mice, 20 mg/kg daily gavage from day 3, 4 weeks

Row | SMILES | AKT phosphorylation [1] | TYRO3 phosphorylation ([2]; screening (FIG. 2A)) | NF-κB target gene expression [3] | phosphorylation of Mer [4] | phosphorylation of Axl [5] | toxicity during the treatment period ([6]; ADRN Balb/c mice, 20 mg/kg daily gavage) | albuminuria [6, 9] | glomerular injury [6, 9] | adriamycin-induced nephropathy (ADRN) ([6]; Balb/c mice, 20 mg/kg from day 3, sacrificed day 28) | albuminuria [7] | glomerular injury [7] | AKT phosphorylation in TYRO3 overexpressing cells [8] | specificity as agonist for TYRO3 among TAM receptors ([2]; from phosphorylation of Tyro3, Axl and Mer) | TYRO3 phosphorylation ([2]; different doses, anti-phospho-Tyro3 antibody (FIG. 4A)) | effect as TYRO3 agonist compared between hits ([2]; screening in podocytes)
1 | COc1cc(-c2nc(O)c(C)s2)ccc1Br [C-8, 2-(4-Bromo-3-Methoxyphenyl)-5-Methylthiazol-4-ol] | induced significantly | induced significantly | suppressed | – | – | – | – | – | – | – | – | – | – | – | –
2 | Cc1sc(-c2ccc(B(O)O)s2)nc1O [C-10, (5-(4-Hydroxy-5-Methylthiazol-2-yl)Thiophen-2-yl)Boronic Acid] | induced significantly | induced significantly | suppressed | slightly reduced | did not affect | No obvious toxicity | significantly reduced | significantly reduced | attenuates | improved | improved | induced | quite specific agonist for TYRO3 | induced significantly | appears better than C-8

— patent US20240336634A1, “AGONISTS OF TYRO3 AS PROTECTION AGAINST PODOCYTE INJURY IN KIDNEY GLOMERULAR DISEASE” (The Government of the United States of America as …, priority 2021, published 2024)
